Measured values from ChEMBL document CHEMBL4689842, “EUbOPEN Chemogenomics Library wave 1” (2021).

What was measured:
Format in all cases: toxicity, cell-based
[1] = system: U2OS; assay: Incucyte cell viability with U2OS; details: human, 10 µM, compound concentration 10 uM
[2] = system: HEK-293T; assay: Incucyte cell viability with HEK293T; details: human, 10 µM, compound concentration 10 uM
[3] = system: Fibroblast; assay: Incucyte cell viability with human fibroblast; details: 10 µM, compound concentration 10 uM
[4] = 0 h, replicate number 1, timepoint 0 hours
[5] = 6 h, replicate number 1, timepoint 6 hours
[6] = 12 h, replicate number 1, timepoint 12 hours
[7] = 18 h, replicate number 1, timepoint 18 hours
[8] = 18 h, replicate number 2, timepoint 18 hours
[9] = 24 h, replicate number 1, timepoint 24 hours
[10] = 0 h, replicate number 2, timepoint 0 hours
[11] = 12 h, replicate number 2, timepoint 12 hours
[12] = 24 h, replicate number 2, timepoint 24 hours
[13] = 6 h, replicate number 2, timepoint 6 hours
Further: filed as whole numbers so only -1 and 0 and 1 occur.

SMILES | Growth Rate [1, 4] | Growth Rate [1, 5] | Growth Rate [1, 6] | Growth Rate [1, 7] | Growth Rate [1, 8] | Growth Rate [1, 9] | Growth Rate [2, 4] | Growth Rate [2, 10] | Growth Rate [3, 4] | Growth Rate [3, 5] | Growth Rate [3, 6] | Growth Rate [3, 7] | Growth Rate [3, 9] | Growth Rate [3, 12] | Growth Rate [1, 11] | Growth Rate [1, 12] | Growth Rate [2, 5] | Growth Rate [2, 6] | Growth Rate [2, 7] | Growth Rate [2, 9] | also measured
COc1cccc(CNC(=O)c2nc3scc(CN(C)Cc4ccccc4)c3c(=O)[nH]2)c1 [T-26f] | 0 | 1 | 1 | 1 | 0 | 1 | 0 | 1 | 0 | 0 | 0 | 0 | 0 | 1 |  |  |  |  |  |  | Growth Rate [3, 11]: 1; Growth Rate [3, 8]: 1
CN(C)CC[C@@H](c1ccc(Cl)cc1)c1ccccn1.O=C(O)/C=C\C(=O)O [DEXCHLORPHENIRAMINE MALEATE] | 0 |  | 1 | 0 |  | 1 | 0 |  | 0 | 1 | 1 | 1 | 1 | 0 | 0 | 0 | 1 | 1 | 1 | 1 | Growth Rate [1, 13]: 0; Growth Rate [2, 13]: 0; Growth Rate [3, 8]: 0
CCC(=O)N[C@@H]1CC[C@H](C(=O)N(C)c2ccc(-c3nc4ccccc4o3)cc2)C1 [BI 99990] | 0 | 0 | 0 | 0 |  | 0 | 0 | 1 | 0 | 0 | 0 | 0 | 1 | 0 | 1 |  | 0 | 0 | 0 | 0 | Growth Rate [1, 13]: 1
C[C@H](c1ccnc(Nc2nc3ccc(-c4cc(N(C)C)ncn4)cc3[nH]2)c1)N1CCN(C(=O)CC(F)(F)F)CC1 [BAY-985] | 0 | 1 | 1 | 0 | 1 | 1 | 0 | 1 | 1 | 1 | 1 | 1 | 1 |  |  |  |  |  |  |  | Growth Rate [2, 12]: 1
O=C(NC[C@H](O)CN1CCc2ccccc2C1)c1ccnc(NC2CCC2)c1 | 1 | 0 | 0 | 0 | 1 | 0 | 1 | 0 |  | 0 | 0 | 0 | 1 |  | 1 | 1 |  |  |  |  | Growth Rate [1, 10]: 0; Growth Rate [1, 13]: 1; Growth Rate [2, 12]: 1; Growth Rate [3, 10]: 0; Growth Rate [3, 11]: 1; Growth Rate [3, 8]: 1
CCC(=O)N1CC[C@H](Nc2ncnc3c2CN(c2cnc(OC)c(C(F)(F)F)c2)CC3)C1 [LENIOLISIB] | 0 | 0 | 0 | 0 |  | 0 |  |  |  | 0 | 0 | 0 | 0 |  | 1 |  |  |  |  |  | Growth Rate [1, 10]: 1; Growth Rate [2, 13]: 0; Growth Rate [2, 11]: 1; Growth Rate [2, 12]: 1; Growth Rate [3, 10]: 1
COc1ccc(COc2ccc(Cc3cnc(N)nc3N)cc2OC)cc1 [GW632580X] | 0 | 0 | 1 | 1 | 0 | 1 |  |  | 1 | 1 | 1 | 1 | 1 | 0 | 0 | 0 | 0 | 0 | 0 | 0 | Growth Rate [3, 13]: 0; Growth Rate [3, 11]: 0; Growth Rate [3, 8]: 0
CCOC(=O)c1cc(C#N)c(N2CCC(C(=O)NS(=O)(=O)Cc3ccccc3)CC2)nc1C |  | 1 | 0 | 0 | 1 | 0 | 1 | 0 | 0 | 0 | 0 | 0 | 1 | 0 | 1 | 1 | 0 | 0 | 0 | 0 | Growth Rate [1, 10]: 1; Growth Rate [1, 13]: 0; Growth Rate [2, 13]: 1; Growth Rate [2, 12]: 1
CNc1nc(Nc2cnn([C@H]3CCN(C4COC4)C[C@@H]3F)c2Cl)ncc1C(F)(F)F | 1 | 0 | 1 | 1 | 0 | 1 | 0 |  | 0 |  | 1 | 1 | 0 | 1 |  | 0 | 0 | 0 | 0 | 0 | 
COc1cc2c(cc1-c1c(C)noc1C)ncc1[nH]c(=O)n([C@H](C)c3ccccn3)c12 | 0 | 1 | 1 | 1 |  | 1 |  | 0 | 0 |  | 1 | 0 | 0 |  |  |  | 0 |  | 0 | 0 | Growth Rate [2, 11]: 0; Growth Rate [3, 11]: 0
CCc1cc2c(c(CC)n1)CCC(=O)N2Cc1ccc(-c2ccccc2-c2nnn[nH]2)cc1.Cl | 1 | 0 | 0 | 0 |  | 0 | 0 |  | 0 | 0 | 0 | 0 | 1 |  |  | 1 | 1 | 1 | 1 | 1 | Growth Rate [1, 10]: 0; Growth Rate [2, 13]: 0; Growth Rate [2, 8]: 0; Growth Rate [3, 13]: 1; Growth Rate [3, 8]: 1
CN1C(=O)[C@@H](N2CCc3c(nn(Cc4ccccc4)c3Br)C2=O)COc2ccccc21 [TP-030-2] | 0 | 0 | 0 | 0 | 1 | 0 | 0 | 1 |  | 0 | 0 | 0 | 0 |  | 1 | 1 |  |  | 1 | 1 | Growth Rate [1, 13]: 1; Growth Rate [2, 13]: 0; Growth Rate [2, 11]: 0; Growth Rate [2, 12]: 0
C=CCN1C[C@H](C)N([C@H](c2ccc(C(=O)N(CC)CC)cc2)c2cccc(O)c2)C[C@H]1C | 0 |  |  | 1 |  | 1 | 1 | 0 | 0 | 0 | 0 | 0 | 1 | 0 | 1 |  | 0 | 0 | 0 | 0 | Growth Rate [1, 13]: 1
CCN(CC)CCCCC1CCN(CC(=O)N2c3ccccc3C(=O)Nc3cccnc32)CC1 | 0 |  | 1 | 1 | 0 | 1 | 0 |  | 0 |  | 1 | 1 | 1 |  |  | 0 | 1 | 1 | 1 | 1 | Growth Rate [1, 13]: 0; Growth Rate [3, 10]: 1
